Measured values reported in the supplement of paper PMC10307832.

Compound: CO[C@H]1C[C@@H]2CC[C@@H](C)[C@@](O)(O2)C(=O)C(=O)N2CCCC[C@H]2C(=O)O[C@H]([C@H](C)C[C@@H]2CC[C@@H](OCCO)[C@H](OC)C2)CC(=O)[C@H](C)/C=C(\C)[C@@H](O)[C@@H](OC)C(=O)[C@H](C)C[C@H](C)/C=C/C=C/C=C/1C [Everolimus]
Assay: relative viability (nuclei count vs DMSO), 5 days (fraction); higher = more cells survive
Procedure, shortened: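 A plate was accepted only when its control CV was below 25% and the cells had doubled at least once. Viability is defined from nuclear counts as treated wells divided by vehicle wells, with the median taken across plates. That median covers lung cancer cell lines grown in 1536-well plates, dosed by pinning at five √10-spaced library-drug concentrations, and counted in MetaXpress from 4× Hoechst images after 5 days.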

Row | Cell Line | relative viability (0.01 µM) | relative viability (0.03162 µM) | relative viability (0.1 µM) | relative viability (0.3162 µM) | relative viability (1 µM)
1 | NCI-H1993 | 0.675 | 0.61 | 0.596 | 0.685 | 0.626
2 | NCI-H2009 | 0.769 | 0.867 | 0.705 | 0.791 | 0.841
3 | NCI-H2023 | 0.545 | 0.501 | 0.458 | 0.457 | 0.378
4 | NCI-H2085 | 0.848 | 0.865 | 0.692 | 0.735 | 0.689
5 | NCI-H2087 | 0.814 | 0.903 | 0.759 | 0.772 | 0.966
6 | NCI-H2126 | 0.681 | 0.615 | 0.617 | 0.606 | 0.594
7 | NCI-H2170 | 0.459 | 0.45 | 0.428 | 0.459 | 0.464
8 | NCI-H2228 | 0.706 | 0.593 | 0.51 | 0.533 | 0.582
9 | NCI-H2342 | 0.569 | 0.512 | 0.531 | 0.667 | 0.641
10 | NCI-H2347 | 0.928 | 0.95 | 0.795 | 0.887 | 0.75
11 | NCI-H2405 | 0.791 | 0.774 | 0.731 | 0.767 | 0.74
12 | NCI-H3122 | 0.987 | 0.993 | 0.831 | 0.691 | 0.852
13 | PC-3 [JPC-3] | 1.01 | 1.04 | 0.991 | 0.891 | 0.936
14 | PC-14 | 0.808 | 0.759 | 0.679 | 0.657 | 0.734
15 | RERF-LC-KJ | 0.788 | 0.695 | 0.584 | 0.659 | 0.558
16 | SK-LU-1 | 0.652 | 0.583 | 0.593 | 0.591 | 0.639
17 | SK-MES-1 | 0.755 | 0.75 | 0.74 | 0.663 | 0.622
18 | SW 900 | 0.578 | 0.498 | 0.545 | 0.57 | 0.512
19 | SW 1573 | 0.585 | 0.555 | 0.546 | 0.544 | 0.519
20 | UMC-11 | 0.376 | 0.415 | 0.374 | 0.44 | 0.468
